Measurements reported in ChEMBL document CHEMBL5104134, “Targeting the interaction of β-catenin and TCF/LEF transcription factors to inhibit oncogenic Wnt signaling” (Bioorg Med Chem, 2022).
One block for each compound: values may come before it. Starred links: 1 amine or outer side, 2 acyl side, 3 side chain; linkers in the order of their positions; H or OH if unused. Positions of bridges follow the written chain, without caps; N, C: chain ends. Non-standard residues stand in square brackets, D forms with d. Residues, ends and D or L forms follow the SMILES beside them. X1 = C(=C\[*:2])/CC[*:1]; βAla = NCCC(=O)O

Assays:
[1] = Antiproliferative activity against human LNCaP-abl cells assessed as inhibition of cell proliferation incubated for 5 days by Cell Titer-Fluor assay; assay type: functional, cell-based; conditions: 120 h
[2] = Antiproliferative activity against human LNCaP-95 cells assessed as inhibition of cell proliferation incubated for 5 days by Cell Titer-Fluor assay; assay type: functional, cell-based; conditions: LNCaP-95, 120 h
[3] = Inhibition of Wnt reporter activity in human SW480 cells by cell based assay; assay type: functional
[4] = Inhibition of Wnt reporter activity in human HeLa cells by cell based assay
TCF4-CTNNB1 complex = target: T1, TCF4-CTNNB1 complex (Homo sapiens, UniProt P35222); assay: Inhibition of His-tagged beta-catenin (134 to 668 residues)/CM-5 sensor chip immobilized N-terminal GST-tagged TCF4 interaction (unknown origin) preincubated with beta-catenin for 15 mins followed by TCF4 addition measured after 60 secs by SPR analysis; assay type: protein-complex assay
T1 sequence (P35222 whole entry): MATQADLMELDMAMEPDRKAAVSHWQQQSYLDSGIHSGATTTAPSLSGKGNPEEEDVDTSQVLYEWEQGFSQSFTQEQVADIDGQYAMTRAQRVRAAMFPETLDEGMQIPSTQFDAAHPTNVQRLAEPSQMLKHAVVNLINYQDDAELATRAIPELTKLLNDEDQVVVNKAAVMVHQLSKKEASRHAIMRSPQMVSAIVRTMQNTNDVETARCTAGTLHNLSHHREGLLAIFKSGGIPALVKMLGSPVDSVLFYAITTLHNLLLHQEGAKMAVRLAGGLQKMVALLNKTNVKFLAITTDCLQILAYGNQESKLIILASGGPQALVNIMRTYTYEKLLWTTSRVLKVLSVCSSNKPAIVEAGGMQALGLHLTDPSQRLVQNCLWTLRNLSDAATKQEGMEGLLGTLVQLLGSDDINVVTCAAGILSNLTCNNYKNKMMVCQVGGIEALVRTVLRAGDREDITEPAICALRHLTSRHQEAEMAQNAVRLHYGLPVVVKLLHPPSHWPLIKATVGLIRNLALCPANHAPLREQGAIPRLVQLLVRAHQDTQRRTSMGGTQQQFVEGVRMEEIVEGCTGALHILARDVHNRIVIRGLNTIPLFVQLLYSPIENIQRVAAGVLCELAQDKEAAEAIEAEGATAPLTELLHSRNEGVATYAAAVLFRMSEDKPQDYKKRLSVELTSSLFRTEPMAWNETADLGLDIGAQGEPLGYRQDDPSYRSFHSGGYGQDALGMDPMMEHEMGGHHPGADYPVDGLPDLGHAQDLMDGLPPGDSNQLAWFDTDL
T1 sequence (P15884 whole entry): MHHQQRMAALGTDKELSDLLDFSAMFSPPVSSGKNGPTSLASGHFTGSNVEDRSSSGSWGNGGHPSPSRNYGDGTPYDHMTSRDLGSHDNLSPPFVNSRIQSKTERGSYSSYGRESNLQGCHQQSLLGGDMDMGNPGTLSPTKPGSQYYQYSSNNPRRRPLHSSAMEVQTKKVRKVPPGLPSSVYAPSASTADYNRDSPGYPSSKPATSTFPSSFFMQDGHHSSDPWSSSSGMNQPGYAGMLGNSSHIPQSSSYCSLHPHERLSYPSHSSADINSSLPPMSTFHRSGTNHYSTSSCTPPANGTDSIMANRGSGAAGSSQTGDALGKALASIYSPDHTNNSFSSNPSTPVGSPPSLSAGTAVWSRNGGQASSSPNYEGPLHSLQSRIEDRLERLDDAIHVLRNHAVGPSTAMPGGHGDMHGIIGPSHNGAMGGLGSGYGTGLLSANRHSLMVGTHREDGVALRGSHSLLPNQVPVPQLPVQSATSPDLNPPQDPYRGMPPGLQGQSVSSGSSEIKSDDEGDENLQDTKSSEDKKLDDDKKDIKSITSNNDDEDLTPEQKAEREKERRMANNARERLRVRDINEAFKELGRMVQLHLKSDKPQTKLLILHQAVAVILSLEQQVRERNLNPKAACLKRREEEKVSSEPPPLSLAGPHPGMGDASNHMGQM

SMILES: COc1cc(OC)cc(N2CC(=O)N(CCCOC(C)C)CC(=O)N(C(C)c3ccc(O)cc3)CC(=O)N(C(C)c3ccc(O)cc3)CC(=O)N[C@H](C)C(=O)N(CCc3ccccc3Oc3ccccc3)CC2=O)c1 (stereo not given in full)
- IC50 [1]: 0.2 µM
- IC50 [2]: 0.8 µM

- IC50 [3]: 29 µM
SMILES: CCOC(=O)C[C@@H](NC(=O)[C@@H](Cc1ccc2ccccc2c1)NC(=O)Cc1cc2cc(Cl)ccc2[nH]1)C(=O)N[C@H](CC(=O)OCC)C(=O)OC

- IC50 [4]: 8 µM
SMILES: CC(C)C[C@@H]1NC(=O)[C@H](CC(C)C)NC(=O)[C@H](CO)NC(=O)[C@H](CC(=O)O)NC(=O)[C@@H]2CCCN2C(=O)[C@@H]2CCCN2C(=O)[C@H](C(C)C)NC(=O)[C@H](CC(=O)O)NC(=O)[C@H](CC(N)=O)NC(=O)[C@H](CCCNC(=N)N)NC(=O)[C@@H]2CS/C=C/CCSC[C@H](NC1=O)C(=O)N[C@@H](Cc1ccccc1)C(=O)NCCC(=O)NCCC(=O)N[C@@H](C(C)C)C(=O)N2 (cyclo(CF[βAla][βAla]VCRNDVPPDSLL); linker 1-6 via X1)

- IC50 (TCF4-CTNNB1 complex): 24 µM
SMILES: CCc1ccc(OCc2nnc(SC3CCCC3=O)n2C(C)c2ccccc2)cc1 (stereo not given)
